This is an account of results in paper PMC4556614 (PLoS ONE, 2015).

The structures appear in SMILES notation. Where two headings read alike, the source gives them in different places.

By inhibition is commonly meant the drop in the measured response relative to a control, in per cent.

For data set [1], the target named is T1, OCT2 (Homo sapiens, UniProt O15244). Kind of data set: in vitro. As to conditions: for inhibition at 3 min, 20 µM / inhibition at 3 min, 200 µM: pH 7.3, probe [14C]metformin, 1000 µM, metformin 1000 μM, net uptake HEK-OCT2 minus HEK-VC; for inhibition at 3 min, 20 µM: % Inhibition of OCT2-dependent MF uptake at 20 µM (mean ± SEM), test drug 20 µM; for inhibition at 3 min, 200 µM: % Inhibition of OCT2-dependent MF uptake at 200 µM (mean ± SEM), test drug 200 µM. How it is done: (§1) For the transport assays HEK cell lines stably transfected with human OCT2 (HEK-OCT2) or the vector only (HEK-VC) were used. The HEK-OCT2 cell line was established and characterized previously. HEK-OCT2 and HEK-VC cells were seeded in poly-D-lysine (Sigma Aldrich, Taufkirchen, Germany) coated 48-well-plates at a density of 1.2 x 10^5 cells/well. […] Uptake was stopped by washing the cells three times with ice-cold uptake buffer. Afterwards, cells were lysed with 5 mM Tris buffer (pH 7.3) containing 0.1% Triton X-100. The intracellular accumulation of radioactivity was determined by liquid scintillation counting (PerkinElmer, Rodgau-Jügesheim, Germany) and protein concentration of each lysate was measured with bicinchonic acid assay (BCA Protein Assay Kit, Thermo Fisher Scientific, Waltham, MA, USA). We performed two to eight experiments each on at least two separate days, i.e., n = 4–16.
Experimental half-maximal inhibitory concentrations (IC50 values) were measured as the substrate uptake in the presence of increasing concentrations of test drugs. These experiments were performed as described above (three experiments each on two separate days, i.e., n = 6). IC50 values were calculated with GraphPad Prism 5.0 (GraphPad Software, San Diego, CA, USA). IC50 was estimated by a sigmoidal inhibition model and was fit to the equation V = V 0 / (1 + (I / IC50 ) ^n ) by nonlinear regression. V is the net uptake in the presence of the inhibitor, V 0 is the net uptake in the absence of the inhibitor, I is the concentration of the inhibitor and n is the slope.

Data set [2] deals with T1, OCT2. Kind of data set: Inhibition of OCT2-mediated [3H]MPP+ uptake in HEK-OCT2 cells. The following applies: for inhibition at 3 min, 20 µM / inhibition at 3 min, 200 µM: human, pH 7.3, probe [3H]MPP+, 50 µM. How it is done:
as §1

Where [3] appears, read: test drug 20 µM, MPP+ 50 μM, 3 min, net uptake HEK-OCT2 minus HEK-VC.
Setting [4] is: test drug 200 µM, MPP+ 50 μM, 3 min, net uptake HEK-OCT2 minus HEK-VC.

T1 sequence (O15244 whole entry): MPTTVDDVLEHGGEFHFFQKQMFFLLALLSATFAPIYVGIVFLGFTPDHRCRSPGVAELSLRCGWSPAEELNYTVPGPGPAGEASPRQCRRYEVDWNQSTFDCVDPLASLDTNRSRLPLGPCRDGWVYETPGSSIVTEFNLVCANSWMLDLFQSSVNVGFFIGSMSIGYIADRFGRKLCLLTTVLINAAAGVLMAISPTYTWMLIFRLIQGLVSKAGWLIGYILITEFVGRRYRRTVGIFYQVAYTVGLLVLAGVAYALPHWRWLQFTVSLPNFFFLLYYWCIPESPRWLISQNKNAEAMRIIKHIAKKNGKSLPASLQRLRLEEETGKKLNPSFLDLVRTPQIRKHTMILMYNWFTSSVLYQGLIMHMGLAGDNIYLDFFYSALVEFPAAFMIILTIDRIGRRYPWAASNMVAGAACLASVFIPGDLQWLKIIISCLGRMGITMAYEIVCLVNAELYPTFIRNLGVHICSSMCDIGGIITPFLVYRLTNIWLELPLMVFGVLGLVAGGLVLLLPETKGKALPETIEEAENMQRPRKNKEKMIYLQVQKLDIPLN

As to `Cl.Cl.OCCN1CCN(CCC=C2c3ccccc3Sc3ccc(C(F)(F)F)cc32)CC1` (mixture of isomers) [Flupentixol], at OCT2 [1], the “% Inhibition of OCT2-dependent MF uptake at 20 µM (mean ± SEM)” value is given as 75.0 ± 7.9 and the “% Inhibition of OCT2-dependent MF uptake at 200 µM (mean ± SEM)” value was determined as 96.1 ± 2.1. For the same compound, on OCT2 [2] (setting [3]), the “% Inhibition of OCT2-dependent MPP+ uptake at 20 µM (mean ± SEM)” value worked out at 22.9 ± 7.5%. Further, at OCT2 [2] (setting [4]), the “% Inhibition of OCT2-dependent MPP+ uptake at 200 µM (mean ± SEM)” value is given as 107.8 ± 5.0%.

Consider `N[C@@H]1C[C@H]1c1ccccc1` (racemic) [Tranylcypromine], for which, at OCT2 [1], the “% Inhibition of OCT2-dependent MF uptake at 20 µM (mean ± SEM)” value is given as 39.0 ± 3.3 and the “% Inhibition of OCT2-dependent MF uptake at 200 µM (mean ± SEM)” value was found to be 79.1 ± 2.9. For the same compound, on OCT2 [2], the “% Inhibition of OCT2-dependent MPP+ uptake at 20 µM (mean ± SEM)” value was determined as 27.8 ± 5.6 and the “% Inhibition of OCT2-dependent MPP+ uptake at 200 µM (mean ± SEM)” value is listed as 54.7 ± 3.1.

Take `CC(=O)Oc1ccccc1C(=O)O` [ASA, acetylsalicylic acid]: at OCT2 [1] (human, pH 7.3), the “% Inhibition of OCT2-dependent MF uptake at 20 µM (mean ± SEM)” value is on record as -18.7 ± 11.0% and the “% Inhibition of OCT2-dependent MF uptake at 200 µM (mean ± SEM)” value turned out to be 1.3 ± 8.9%. In addition, the “% Inhibition of OCT2-dependent MPP+ uptake at 20 µM (mean ± SEM)” value at OCT2 [2] (setting [3]) was -10.6 ± 5.7%. Further, the “% Inhibition of OCT2-dependent MPP+ uptake at 200 µM (mean ± SEM)” value on OCT2 [2] (setting [4]) was -1.5 ± 4.5%.

Consider `CC(=O)NCCCS(=O)(=O)O` [Acamprosate], for which, at OCT2 [1] (human, pH 7.3), the “% Inhibition of OCT2-dependent MF uptake at 20 µM (mean ± SEM)” value came to 2.7 ± 4.8% and the “% Inhibition of OCT2-dependent MF uptake at 200 µM (mean ± SEM)” value worked out at 0.9 ± 5.8%. For the same compound, at OCT2 [2] (setting [3]), the “% Inhibition of OCT2-dependent MPP+ uptake at 20 µM (mean ± SEM)” value is listed as -8.1 ± 4.4%. Further, the “% Inhibition of OCT2-dependent MPP+ uptake at 200 µM (mean ± SEM)” value at OCT2 [2] (setting [4]) was -7.7 ± 5.2%.

Take `CC(=O)N[C@@H](CS)C(=O)O` [Acetylcysteine]: at OCT2 [1] (human, pH 7.3), the “% Inhibition of OCT2-dependent MF uptake at 20 µM (mean ± SEM)” value is recorded as 13.2 ± 6.3% and the “% Inhibition of OCT2-dependent MF uptake at 200 µM (mean ± SEM)” value is 11.0 ± 9.4%. Moreover, the “% Inhibition of OCT2-dependent MPP+ uptake at 20 µM (mean ± SEM)” value at OCT2 [2] (setting [3]) is given as -35.6 ± 7.7%. The “% Inhibition of OCT2-dependent MPP+ uptake at 200 µM (mean ± SEM)” value at OCT2 [2] (setting [4]) is on record as -36.0 ± 3.2%.

With `COc1ccc2cccc(CCNC(C)=O)c2c1` [Agomelatine], at OCT2 [1] (human), the inhibition at 3 min, 20 µM was found to be 71.3 ± 2.6% and the inhibition at 3 min, 200 µM amounted to 95.5 ± 1.8%. In addition, at OCT2 [2], the inhibition at 3 min, 20 µM was -10.3 ± 2.7% and the inhibition at 3 min, 200 µM turned out to be 39.9 ± 3.5%.

For `Oc1ncnc2[nH]ncc12` [Allopurinol], the inhibition at 3 min, 20 µM against OCT2 [1] (human) came out at 24.8 ± 6.9%; at OCT2 [2] it was 35.6 ± 7.5%. The inhibition at 3 min, 200 µM against OCT2 [1] (human) turned out to be 26.8 ± 3.9%; against OCT2 [2], 52.7 ± 8.8%.

In the case of `CCN1CCCC1CNC(=O)c1cc(S(=O)(=O)CC)c(N)cc1OC` (stereo not drawn) [Amisulpride], at OCT2 [1] (human), the inhibition at 3 min, 20 µM turned out to be 52 ± 2.1% and the inhibition at 3 min, 200 µM was determined as 91.7 ± 0.7%. Besides, on OCT2 [2], the inhibition at 3 min, 20 µM was 25.5 ± 7% and the inhibition at 3 min, 200 µM amounted to 51.3 ± 6.7%.

With `CCOC(=O)C1=C(COCCN)NC(C)=C(C(=O)OC)C1c1ccccc1Cl` (stereo not drawn) [Amlodipine], at OCT2 [1] (human, pH 7.3), the “% Inhibition of OCT2-dependent MF uptake at 20 µM (mean ± SEM)” value is 21.9 ± 9.0% and the “% Inhibition of OCT2-dependent MF uptake at 200 µM (mean ± SEM)” value is given as 110.0 ± 17.3%. Also, at OCT2 [2] (setting [3]), the “% Inhibition of OCT2-dependent MPP+ uptake at 20 µM (mean ± SEM)” value is listed as -13.8 ± 7.4%. Besides, the “% Inhibition of OCT2-dependent MPP+ uptake at 200 µM (mean ± SEM)” value at OCT2 [2] (setting [4]) was determined as 39.3 ± 6.8%.

Turning to `CC1(C)S[C@@H]2[C@H](NC(=O)[C@H](N)c3ccc(O)cc3)C(=O)N2[C@H]1C(=O)O` [Amoxicillin], on OCT2 [1] (human, pH 7.3), the “% Inhibition of OCT2-dependent MF uptake at 20 µM (mean ± SEM)” value was determined as 3.2 ± 6.6% and the “% Inhibition of OCT2-dependent MF uptake at 200 µM (mean ± SEM)” value is on record as 4.5 ± 5.1%. Also, the “% Inhibition of OCT2-dependent MPP+ uptake at 20 µM (mean ± SEM)” value on OCT2 [2] (setting [3]) was -21.0 ± 11.1%. Further, on OCT2 [2] (setting [4]), the “% Inhibition of OCT2-dependent MPP+ uptake at 200 µM (mean ± SEM)” value was -13.5 ± 14.5%.

Take `O=C1CCc2ccc(OCCCCN3CCN(c4cccc(Cl)c4Cl)CC3)cc2N1` [Aripiprazole]: at OCT2 [1] (human, pH 7.3), the “% Inhibition of OCT2-dependent MF uptake at 20 µM (mean ± SEM)” value turned out to be 53.4 ± 9.1% and the “% Inhibition of OCT2-dependent MF uptake at 200 µM (mean ± SEM)” value is recorded as 82.0 ± 6.7%. Further, on OCT2 [2] (setting [3]), the “% Inhibition of OCT2-dependent MPP+ uptake at 20 µM (mean ± SEM)” value is 6.7 ± 3.6%. Moreover, the “% Inhibition of OCT2-dependent MPP+ uptake at 200 µM (mean ± SEM)” value at OCT2 [2] (setting [4]) turned out to be 16.9 ± 5.2%.

As to `O=C(CCCN1CCC(n2c(O)nc3ccccc32)CC1)c1ccc(F)cc1` [Benperidol], at OCT2 [1] (human, pH 7.3), the “% Inhibition of OCT2-dependent MF uptake at 20 µM (mean ± SEM)” value amounted to 58.7 ± 3.3% and the “% Inhibition of OCT2-dependent MF uptake at 200 µM (mean ± SEM)” value came out at 72.2 ± 2.7%. For the same compound, the “% Inhibition of OCT2-dependent MPP+ uptake at 20 µM (mean ± SEM)” value at OCT2 [2] (setting [3]) was -21.5 ± 2.8%. Moreover, the “% Inhibition of OCT2-dependent MPP+ uptake at 200 µM (mean ± SEM)” value at OCT2 [2] (setting [4]) is 1.6 ± 8.3%.
